According to patent US20200247761A1, “SULFONAMIDE OR AMIDE COMPOUNDS, COMPOSITIONS AND METHODS FOR THE PROPHYLAXIS AND/OR TREATMENT OF AUTOIMMUNE, INFLAMMATION OR INFECTION RELATED DISORDERS” (TAIWANJ PHARMACEUTICALS CO., LTD, priority 2017, published 2020):
Like-named read-outs stand apart in the source and are kept apart here.

Assays:
Type in all cases: cell-based
RAW264.7 cells = test: Cell viability (MTT) of RAW264.7 cells; conditions: for toxic activity toward RAW264.7 cells (in words): Table 2, 10 μM; for Cell Viability (%) mean: Test Con. 10 μM, MTT, RAW264.7 cells, percentage of viable LPS-stimulated cells
Description: (§1) RAW264.7 cells (1.6×10^5 cells/well) or HEK 293 cells (2.5-5.0×10^4 cells/well) were seeded in 96-well plate overnight and treated with different compounds for 16-24 hours. Cells' growth were determined by MTT-based colorimetric assays. Viability of the test cells treated with vehicle (0.5% DMSO) only was defined as 100% viable. Survival of cells after treatment with DETDs was calculated using the following formula: viable cell number (%)=OD570 (treated cell culture)/OD570 (vehicle control)×100.
(§2) The cell viability assay was performed by the MTT method, in which cells were incubated with 45 μl of 5 mg/ml MTT for 1 hour at 37° C., and 150 μl of DMSO was added at the end of culture to dissolve the crystals. The signals of individual samples in 96-well plates were detected at O.D.570 nm with a Molecular Devices SpectraMax i3 Imaging Cytometer. Cell viability was expressed in percentage of viable LPS-stimulated cells.

[1] = tested on: mTNF-α secretion from LPS-stimulated RAW264.7 monocytes; test: LPS induced mTNF-α release from RAW264.7 cells (ELISA); conditions: Mus musculus
Description: To confirm whether the inhibitory effect of the selected compounds of example 2.1 (i.e., Compounds 12, 15, 19, 20, 22, 24, 28, 30, 32, 34, 36, 38, 40, 42, 44, 45, 49, 50, 52 and 70) translates to anti-inflammation, they were further tested to see if any of them may suppress mTNF-α secretion from lipopolysaccharide (LPS)-stimulated RAW264.7 monocytes.
To this purpose, RAW264.7 cells were seeded at 1.6×10^5 cells/well into 96-well culture plates. Test compounds (i.e., Compounds 12, 15, 19, 20, 22, 24, 28, 30, 32, 34, 36, 38, 40, 42, 44, 45, 49, 50, 52 and 70, respectively at 10 μM) were added into the culture plates in triplicate and co-cultured at 37° C. in 5% CO2 for 30 minutes. LPS (final conc. 10 ng/ml/well) was then added into the culture plates and the cells were incubated for another 4 hours. At the end of culture, the cultured media were harvested for mTNF-α quantification by ELISA with commercial assay kits (R&D Systems, Minneapolis, Minn.) following the manufacturer's protocol. Signals of the individual samples in 96-well plates were detected at O.D.450 nm/570 nm with a Molecular Devices SpectraMax i3 Imaging Cytometer. The mTNF-α activity was expressed in percentage of viable LPS-stimulated cells without test compound treatment.

[2] = target: T1, Toll-like receptor 4 (TLR4) (Homo sapiens, UniProt O00206); test: TLR4 activity: NF-κB-inducible SEAP reporter in LPS-stimulated TLR4-expressing HEK293 cells; conditions: for inhibition at 10 µM: Test Con. 10 μM, LPS 10 ng/ml, 16-24 hours, HEK293 cells expressing TLR4, read-out: TLR-4 inhibition (%) mean; for activity towards TLR-4 (in words): summary of Table 1 (10, 20 or 100 μM)
T1 construct: expressed in transfected cells; host or cells: HEK293 cells engineered to express TLR4
T1 sequence (O00206 24-839, species assumed): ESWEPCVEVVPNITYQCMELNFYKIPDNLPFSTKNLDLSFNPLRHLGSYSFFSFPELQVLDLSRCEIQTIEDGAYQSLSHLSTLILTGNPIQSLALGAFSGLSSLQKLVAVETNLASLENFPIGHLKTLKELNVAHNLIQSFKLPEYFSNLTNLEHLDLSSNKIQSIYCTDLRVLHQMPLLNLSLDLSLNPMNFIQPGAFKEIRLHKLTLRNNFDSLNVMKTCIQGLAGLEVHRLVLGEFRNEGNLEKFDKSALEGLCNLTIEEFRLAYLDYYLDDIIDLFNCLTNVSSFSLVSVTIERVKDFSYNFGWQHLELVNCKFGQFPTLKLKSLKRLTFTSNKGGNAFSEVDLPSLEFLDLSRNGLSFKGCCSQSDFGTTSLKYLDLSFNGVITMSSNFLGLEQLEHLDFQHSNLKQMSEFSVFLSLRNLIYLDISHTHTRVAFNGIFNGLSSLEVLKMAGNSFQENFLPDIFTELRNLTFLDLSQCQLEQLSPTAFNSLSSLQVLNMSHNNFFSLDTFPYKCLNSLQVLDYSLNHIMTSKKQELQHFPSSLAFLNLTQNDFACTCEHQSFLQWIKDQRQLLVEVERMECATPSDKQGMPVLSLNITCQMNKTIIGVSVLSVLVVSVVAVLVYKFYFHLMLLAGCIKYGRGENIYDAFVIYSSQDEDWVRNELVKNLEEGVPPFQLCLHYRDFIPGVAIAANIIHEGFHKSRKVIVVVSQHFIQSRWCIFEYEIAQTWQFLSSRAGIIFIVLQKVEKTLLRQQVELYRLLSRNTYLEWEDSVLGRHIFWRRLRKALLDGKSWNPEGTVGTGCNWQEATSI
T1 sequence (Q9Y6Y9 17-160 partner limits assumed, species assumed): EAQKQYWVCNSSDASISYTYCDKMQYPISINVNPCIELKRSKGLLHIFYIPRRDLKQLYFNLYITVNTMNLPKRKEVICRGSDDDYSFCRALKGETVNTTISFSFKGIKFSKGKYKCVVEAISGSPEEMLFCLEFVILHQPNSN
Description: Stimulation of the Toll-like receptor 4 (TLR4) was determined by assessing activation of the transcription factor NF-κB in HEK293 cells that were engineered to express TLR4. Assessment of TLR4 stimulation was based on the use of an NE-κB-inducible secreted alkaline phosphatase (SEAP) reporter system in which the SEAP reporter was under the control of a promoter inducible by NF-κB. Thus, the degree of activation of TLR4 can be indirectly quantified spectrophotometrically by measuring the amount of the SEAP reporter that is produced.
The TLR4-expressing cells were plated in HEK-Blue Detection (Invivogen, San Diego, Calif.) medium in a 96-well plate (25,000-50,000 cells/well). The cells were stimulated with lipopolysaccharides (LPS) alone or in combination with the compound of Example 1. Cell culture without LPS and the compound of Example 1 was defined as baseline control. To test whether the compound of Example 1 could block that activation of the TLR4, the cells were treated with the designated compound (10, 20 or 100 μM) and LPS (final conc. 10 ng/ml/well). After an incubation period (16-24 hours) at 37° C. in a CO2 incubator, the signals of individual samples in 96-well plates were detected at O.D.650 nm with a Molecular Devices SpectraMax i3 Imaging Cytometer. The TLR4 activity was expressed in percentage of LPS alone-stimulated cells minus baseline control.

HEK293 cells = test: Cell viability (MTT) of the TLR4-expressing HEK293 cells; conditions: Test Con. 10 μM, percentage of viable LPS-stimulated cells
Description: as §1
as §2, with “method. Cells” for “method, in which cells”

[3] = RAW264.7, Table 2, 10 μM, read-out: inhibition of LPS induced mTNF-α release from RAW264.7 cells
[4] = Test Con. 10 μM, LPS 10 ng/ml, 4 hours, RAW264.7 cells, read-out: mTNF-α inhibition (%) mean

Structure (SMILES)	toxic activity toward RAW264.7 cells (in words) (RAW264.7 cells)	Cell Viability (%) mean (RAW264.7 cells) [%]	inhibition at 10 µM [1, 3] [%]	inhibition at 10 µM [1, 4] [%]	inhibition at 10 µM [2] [%]	activity towards TLR-4 (in words) [2]	Cell Viability (%) mean (HEK293 cells) [%]
C=C(C)C(=O)Nc1ccccc1S(=O)(=O)Nc1ccc(F)cc1Cl [Compound 45]	negligible to no toxic activity	98.3	~40	41.1	65.6	moderate inhibitory activity	100.7
C=CC(=O)N(c1ccc(F)cc1Cl)S(=O)(=O)N1CCC[C@H]1C(=O)OC [Compound 49]	negligible to no toxic activity	81.6	85 to 100	98.8	76.2	moderate inhibitory activity	108.5
C=CC(=O)N(c1ccc(F)cc1Cl)S(=O)(=O)N1CCCC1 [Compound 50]	negligible to no toxic activity	97.6	85 to 100	86.1	76	moderate inhibitory activity	85.1
C=CC(=O)N(c1ccc(F)cc1Cl)S(=O)(=O)N1CCCCC1C(=O)OC (stereo not shown) [Compound 52]	negligible to no toxic activity	88.1	85 to 100	97.2	100	strong antagonist	92.2
C=CC(=O)c1ccccc1S(=O)(=O)N(C)c1ccccc1 [Compound 70]	–	69.6	85 to 100	100	100	strong antagonist	79.7
